Experimental data taken from US20260021046A1, “LIPID NANOPARTICLE AND PHARMACEUTICAL COMPOSITION” (NATIONAL UNIVERSITY CORPORATION HOKKAIDO UNIVERSITY, priority 2022, published 2026).

Experiments:
[1] = Apparent pKa of lipid nanoparticles using TNS; conditions: lipid nanoparticles encapsulating mRNA prepared with the lipid, 37° C.
Procedure: The apparent acid dissociation constant pKa of the lipid membrane of a lipid nanoparticle is measured in a buffer at 37° C. using 6-p-toluidino-2-naphthalenesulfonic acid (TNS) (see Examples).
The apparent pKa of the lipid nanoparticles was also measured using 6-p-toluidino-2-naphthalenesulfonic acid (TNS) (see NPL 14). Specifically, in each well of a 96-well plate, lipid (0.5 mM) of the lipid nanoparticles and TNS (0.6 mM) were added to 200 μL of a buffer solution and mixed. The buffer solution was 20 mM citrate buffer (pH3.50 to 5.50), 20 mM sodium phosphate buffer (pH6.00 to 8.00), or 20 mM Tris-HCl buffer (pH8.00 to 9.00), and each buffer solution contained 150 mM NaCl. At this time, the final concentration of lipid was adjusted to 30 µM and the final concentration of TNS was adjusted to 6 μM. Fluorescence (excitation wavelength 321 nm, fluorescence wavelength 447 nm) was then measured at 37° C. using a plate reader (Enspire 2300 multilabel reader, Perkin Elmer). The pKa was defined as the pH value showing 50% of the maximum fluorescence intensity. • [NPL 14]

[2] = test system: activated hepatic stellate cell line LX-2; assay: EGFP mRNA delivery and transfection screening by FACS; format: cell-based; conditions: LX-2 cells; EGFP mRNA lipid nanoparticles, 250 ng mRNA per well
Procedure: Fourteen types of lipid nanoparticles prepared were screened with activated hepatic stellate cell line LX-2 (Merck (Germany) and hepatocyte line FL83B (ATCC, USA).
Twenty-four hours prior to the experiment, cells were seeded in 6-well plates at 1×10^5 cells/well and incubated at 37° C. The medium was aspirated and the cells were washed with (−) PBS and then treated with lipid nanoparticles encapsulating EGFP mRNA (TriLink BioTechnologies, USA) in 1.5 ml of growth medium for 24 hours. The amount of mRNA per well was 250 ng. Cells were then washed with (−) PBS and incubated in fresh medium for an additional 21 hours. The median fluorescence intensity of EGFP and the percentage of transfected cells were evaluated by fluorescence activated cell sorting (FACS) using a flow cytometer (Cytoflex, Beckman Coulter, USA).

SMO mRNA = assay: In vivo SMO mRNA knockdown in liver tissue by qRT-PCR; parameters: species or system mice; conditions: 24 hours
Procedure: TAA-induced liver fibrosis model mice were prepared in the same manner as in Example 1, and SMO-siRNA-encapsulated lipid nanoparticles were intravenously administered to the mice via the tail vein so that the amount of RNA per kg of body weight was 0.5 mg/kg. 24 hours after the administration, the mouse livers were collected. The ratio of the amount of SMO mRNA to the amount of GAPDH mRNA in the liver tissue was confirmed by qRT-PCR. The SMO gene is expressed only in hepatic stellate cells in the liver.
Next, a lipid composition containing CL15H6 and SMO-siRNA were mixed in different ratios to prepare lipid nanoparticles with different nitrogen/phosphate (N/P) ratios. Specifically, lipid nanoparticles were prepared with N/P ratios of 0.5, 1, 2, 4, 8, 12, 16, and 20. The prepared lipid nanoparticles were intravenously administered to mice with liver fibrosis so that the amount of RNA per kg of body weight was 0.5 mg/kg, and the ratio of the amount of SMO mRNA to the amount of GAPDH mRNA in the liver tissue was confirmed 24 hours later.
Next, the relationship between the dosage amount of SMO-siRNA and the ratio of the amount of SMO mRNA to the amount of GAPDH mRNA in the liver tissue was examined. For comparison, the relationship between the dosage amount of control siRNA (siCtrl) and the ratio of SMO mRNA to GAPDH mRNA in hepatic stellate cells was also examined.
Lipid nanoparticles encapsulating a mixture of the above SMO-siRNA and TGFβ1-siRNA at a ratio of 1:1 were prepared by using CL15H6, the above SMO-siRNA (SEQ ID NOs: 1 and 2) targeting the mRNA of the SMO gene and the TGFβ1-siRNA (SEQ ID NOS: 3 and 4) targeting the mRNA of the TGFβ1 gene and having the sequence shown in Table 4 below. The prepared lipid nanoparticles were intravenously administered to mice with liver fibrosis so that each of the amounts of SMO-siRNA and of TGFβ1-siRNA per kg of body weight was 0.25 mg/kg, and 24 hours later, the ratios of the amounts of SMO mRNA and of TGFβ1 mRNA to the amount of GAPDH mRNA in the liver tissue was confirmed.

[3] = Average particle size, PDI, zeta potential (dynamic light scattering) and RNA encapsulation efficiency (RiboGreen) of lipid nanoparticles; format: physicochemical; conditions: CL15H6 lipid nanoparticles with SMO-siRNA
Procedure: The average particle size, particle size distribution, and zeta potential of the lipid nanoparticles were measured using a Zetasizer Nano ZS (Malvern Instruments Ltd, UK) by dynamic light scattering and the form of lipid nanoparticle was measured using a transmission electron-microscope as described in NPL 12. The efficiency of mRNA encapsulation was estimated by RiboGreen fluorometry as described in NPL 13. Although the respective values vary depending on the type of pH-sensitive cationic lipid, the composition of the lipids constituting the lipid nanoparticles, the preparation conditions of the lipid nanoparticles, and the like, the average particle size of the lipid nanoparticles was in the range of 80 to 350 nm, the PDI was in the range of 0.05 to 0.4, the zeta potential was in the range of −16 to +5 mV, and the efficiency of mRNA encapsulation was 75 to 95%. • [NPL 12] Mahmoud A. Younis, et al., “A Multifunctional Lipid-Based Nanodevice for the Highly Specific Codelivery of Sorafenib and Midkine siRNA to Hepatic Cancer Cells”, Molecular Pharmaceutics, Vol. 16, pp. 4031-4044 • [NPL 13] Mahmoud M. Abd Elwakil, et al., “Engineered &-decalactone lipomers bypass the liver to selectively in vivo deliver mRNA to the lungs without targeting ligands”, Materials Horizons, Vol. 8, pp. 2251-2259
The average particle size, particle size distribution, and zeta potential of the lipid nanoparticles were measured in the same manner as in Example 1 to estimate the efficiency of SMO-siRNA encapsulation. The relationship between the flow rate ratio of the aqueous phase to the organic phase, the average particle size, particle size distribution, zeta potential, and SMO-siRNA encapsulation efficiency of the lipid nanoparticles prepared at the same flow rate ratio when CL15H6 was used as the pH-sensitive cationic lipid is shown in Table 3 below. In the subsequent experiments, lipid nanoparticles were prepared at a ratio of 4:1 (aqueous phase: organic phase), which provided the highest encapsulation efficiency, the smallest average particle size, and the smallest PDI.

[4] = aqueous phase:organic phase 2:1
[5] = aqueous phase:organic phase 3:1
[6] = aqueous phase:organic phase 4:1
[7] = aqueous phase:organic phase 5:1
[8] = aqueous phase:organic phase 9:1

Compound: CCCCCCCC/C=C\CCCCCCCC(=O)OCCCCCCC(O)(CCCCCCOC(=O)CCCCCCC/C=C\CCCCCCCC)CCCCN(CCC)CCC [CL4H6]
- Apparent pKa [1]: 6.25

Compound: CCCCCCCCC(CCCCCC)C(=O)OCCCCCCC(O)(CCCCCCOC(=O)C(CCCCCC)CCCCCCCC)CCCCOC(=O)C1CCN(C)CC1 (stereo not shown) [CL15F6, 7-hydroxy-7-(4-((1-methylpiperidine-4-carbonyl)oxy)butyl)tridecane-1,13-diyl bis(2-hexyldecanoate)]
- mRNA delivery efficiency (median fluorescence intensity of EGFP) [2]: high

Compound: CCCCCCCCC(CCCCCC)C(=O)OCCCCCCC(O)(CCCCCCOC(=O)C(CCCCCC)CCCCCCCC)CCCCN(CCC)CCC (stereo not shown) [CL4F6]
- Apparent pKa [1]: 6.00

Compound: CCCCCCCC/C=C\CCCCCCCC(=O)OCCCCCCC(O)(CCCCCCOC(=O)CCCCCCC/C=C\CCCCCCCC)CCCCOC(=O)C1CCN(C)CC1 [CL15H6, 7-hydroxy-7-(4-((1-methylpiperidine-4-carbonyl)oxy)butyl)tridecane-1,13-diyl dioleate]
- mRNA delivery efficiency (median fluorescence intensity of EGFP) [2]: high
- amount of SMO mRNA (ratio to GAPDH mRNA) in liver tissue (SMO mRNA; CL15H6 SMO-siRNA lipid nanoparticles, 0.5 mg/kg iv, N/P ratio 4 among 0.5 to 20): lowest
- amount of SMO mRNA (ratio to GAPDH mRNA) in liver tissue (SMO mRNA; SMO-siRNA lipid nanoparticles, 0.5 mg/kg RNA iv, versus HEPES buffer control): significantly reduced
- Average particle size [3, 4]: 135.72 nm
- Encapsulation efficiency [3, 4]: 66.12%
- PDI [3, 4]: 0.280
- Zeta potential [3, 4]: −6.81 mV
- Average particle size [3, 5]: 72.5 nm
- Encapsulation efficiency [3, 5]: 92.33%
- PDI [3, 5]: 0.192
- Zeta potential [3, 5]: −3.75 mV
- Average particle size [3, 6]: 53.45 nm
- Encapsulation efficiency [3, 6]: 94.06%
- PDI [3, 6]: 0.093
- Zeta potential [3, 6]: −3.35 mV
- Average particle size [3, 7]: 57.12 nm
- Encapsulation efficiency [3, 7]: 89.19%
- PDI [3, 7]: 0.169
- Zeta potential [3, 7]: −5.08 mV
- Average particle size [3, 8]: 58.53 nm
- Encapsulation efficiency [3, 8]: 75.55%
- PDI [3, 8]: 0.217
- Zeta potential [3, 8]: −8.2 mV

Compound: CCCCCCCC/C=C\CCCCCCCC(=O)OCCCCCCC(O)(CCCCCCOC(=O)CCCCCCC/C=C\CCCCCCCC)CCCCN(C)C [CL1H6, 7-(4-(dimethylamino)butyl)-7-hydroxytridecane-1,13-diyl dioleate]
- mRNA delivery efficiency (median fluorescence intensity of EGFP) [2]: high

Compound: CCCCCCCCCCCCCCCC(=O)OCCCCCCC(O)(CCCCCCOC(=O)CCCCCCCCCCCCCCC)CCCCN(C)C [CL1D6, 7-(4-(dimethylamino)butyl)-7-hydroxytridecane-1,13-diyl dipalmitate]
- mRNA delivery efficiency (median fluorescence intensity of EGFP) [2]: high
